For data set [1], the system named is CCRF-CEM. As to the kind of experiment: (§1) Cytotoxicity against HIV1 infected human CEM cells assessed as reduction in cell viability after 7 days by MTT assay. The format is cell-based. The following applies: ccrf-cem, 168 h.
Data set [2] deals with Vero. As to the kind of experiment: (§2) Cytotoxicity against HIV1 infected African green monkey Vero cells assessed as reduction in cell viability after 7 days by MTT assay. The format is cell-based. The following applies: chlorocebus sabaeus, vero, 168 h. A general note: Tetrazolium assays rely on reduction of a dye to a coloured formazan, in cell work by metabolically active cells.

Data set [3] relates to PBMC. Put plainly: (§3) Cytotoxicity against HIV1 infected human PBMC cells assessed as reduction in cell viability after 7 days by MTT assay. The format is cell-based. The following applies: pbmc, 168 h.
Data set [4] addresses T1, Human immunodeficiency virus type 1 reverse transcriptase (Human immunodeficiency virus 1, UniProt Q72547). Put plainly: Inhibition of HIV1 RT using 17-mer DNA/Alexa Fluor 488 5'-end labeled DNA/Alexa Fluor 555-aha-dUTP as primer/template/substrate preincubated for 10 mins followed substarte addition measured after 30 mins by FRET assay.
A short description of data set [5]: Ratio of CC50 for human PBM cells to EC50 for HIV-1 LAI infected in human PBM cells.
In data set [6] the test system is Human immunodeficiency virus 1. As to the kind of experiment: Antiviral activity against HIV-1 LAI infected in human PBM cells after 7 days. The format is functional, organism-based. Particulars: Human immunodeficiency virus 1, LAI, 168 h.
In data set [7] the test system is Human immunodeficiency virus 1. As to the kind of experiment: Ratio of IC50 for HIV1 RT K103N mutant to IC50 for wild type HIV1 RT.
Data set [8] concerns the target Human immunodeficiency virus type 1 reverse transcriptase (Human immunodeficiency virus 1, UniProt Q72547, V108I).
The subject of data set [9] is Human immunodeficiency virus 1.
Data set [10] concerns Human immunodeficiency virus 1. Put plainly: Ratio of IC50 for HIV1 RT E138K mutant to IC50 for wild type HIV1 RT.
Data set [11] addresses Human immunodeficiency virus type 1 reverse transcriptase (Human immunodeficiency virus 1, UniProt Q72547, E138K).
The target of data set [12] is Human immunodeficiency virus type 1 reverse transcriptase (Human immunodeficiency virus 1, UniProt Q72547, K103N).
Data set [13] deals with T1, Human immunodeficiency virus type 1 reverse transcriptase. Put plainly: Inhibition of HIV1 RT using A5'-end 32P-labeled 24-mer primer/a48-mer template preincubated for 5 mins followed by 1 uM nucleotides addition measured after 10 mins by gel-based primer extension assay.
The target is the same in data set [14]. As to the kind of experiment: Inhibition of HIV1 RT using A5'-end 32P-labeled 24-mer primer/a48-mer template preincubated for 5 mins followed by 0.5 uM nucleotides addition measured after 15 mins by gel-based primer extension assay.
Data set [15] shares this target. Put plainly: Inhibition of HIV1 RT using A5'-end 32P-labeled 24-mer primer/a48-mer template preincubated for 5 mins followed by 10 uM nucleotides addition measured after 5 mins by gel-based primer extension assay.
The target is the same in data set [16]. Put plainly: Inhibition of HIV1 RT using A5'-end 32P-labeled 24-mer primer/a48-mer template preincubated for 5 mins followed by 25 uM nucleotides addition measured after 2 mins by gel-based primer extension assay.
The nature of data set [17]: as §1. Particulars: HIV1 infected CEM (CCRF-CEM) cells. The format is cell-based, CCRF-CEM.
Data set [18] is described as follows: as §2. The format is cell-based. Particulars: chlorocebus sabaeus, HIV1 infected Vero cells.
The nature of data set [19]: as §3. The format is cell-based. The following applies: HIV1 infected PBMC cells.

Molecules are shown by their SMILES. Bounds are passed on as bounds.

With `CC(C)(C)n1cc(C#N)c2cc(C=O)cnc21`, the cytotoxic concentration (CC50) was over 100 µM in data set [1], 8.1 µM in data set [2] and over 100 µM in [3]. In [4], this compound returned an IC50 of 14 µM. Further, the “Ratio CC50/EC50” value in data set [5] is given as over 100. In addition, a half-maximal response in data set [6] (EC50) required 0.49 µM.
Turning to `CC(=O)c1c(C)nc2c(c(C#N)cn2Cc2ccccc2)c1-c1ccc([N+](=O)[O-])cc1`, the Ratio IC50 in [7] was 2.4; in [9], 12; in [10], 9.4. In addition, the IC50 in data set [8] is over 100 µM; in [11], 59 µM; in [12] it was 15 µM; in data set [4], 6.3 µM. Besides, the half-maximal cytotoxic concentration (CC50) in [1], in data set [2] and in data set [3] was over 100 µM each time. For the same compound, the “Ratio CC50/EC50” value in data set [5] is over 100. The same compound gave an EC50 in data set [6] of 0.19 µM.
For the compound `C=CCn1cc(C#N)c2cc(C#N)cnc21`, the 50% cytotoxic concentration (CC50) in [1], in data set [2] and in [3] was over 100 µM each time. Further, in data set [4], the 50% inhibitory concentration (IC50) was over 100 µM. Moreover, the “Ratio CC50/EC50” value in [5] is given as over 100. Also, the EC50 in data set [6] came out at 0.76 µM.
For the compound `CCCc1c2c(nc3c1c(C#N)cn3C1CCCCC1)CCC2=O`, the CC50 in [1], in data set [2] and in data set [3] was over 100 µM throughout. For the same compound, the half-inhibitory concentration (IC50) in [4] is over 100 µM. The “Ratio CC50/EC50” value in data set [5] is reported as over 100. Besides, a half-maximal response in [6] (EC50) required 0.69 µM.
`CC1(C)CC(=O)c2c(nc3c(c(C#N)cn3Cc3ccccc3)c2-c2cccc(Cl)c2)C1` yielded an IC50 in data set [4] of 58 µM. Also, a half-maximal response in data set [6] (EC50) required 1 µM.
With `CC1(C)CC(=O)c2c(nc3c(c(C#N)cn3Cc3ccccc3)c2-c2ccc(F)cc2)C1`, the IC50 in data set [4] worked out at 2.9 µM.
In the case of `CC1(C)CC(=O)c2cc3c(C#N)cn(Cc4ccccc4)c3nc2C1`, the figures for the cytotoxic concentration (CC50) in [1], in data set [2] and in data set [3] were 3.7 µM, over 100 µM and over 100 µM, respectively. In data set [4], this compound came in with a 50% inhibitory concentration (IC50) of 12 µM. In [5], the “Ratio CC50/EC50” value is given as over 100. Further, a half-maximal effect in [6] (EC50) was put at 0.91 µM.
For `Cc1cccc(C)c1-c1c2c(nc3c1c(C#N)cn3Cc1ccccc1)CC(C)(C)CC2=O`, in [4], half-maximal inhibition (IC50) was put at 26 µM. In data set [6], the concentration for a half-maximal effect (EC50) was over 100 µM.
For `Cc1ccc(-c2cnc3c(c2)c(C#N)cn3Cc2ccccc2)cc1`, the CC50 in data set [1] is over 100 µM; in data set [2], 8.1 µM; in data set [3], over 100 µM. The compound further displayed a half-maximal inhibitory concentration (IC50) in [4] of over 100 µM. For the same compound, the “Ratio CC50/EC50” value in data set [5] is over 100. In data set [6], this compound yielded an EC50 of 0.49 µM.
For the compound `N#Cc1cn(Cc2ccccc2)c2ncc(Br)cc12`, the CC50 in data set [1], in [2] and in data set [3] was over 100 µM each time. The IC50 in data set [4] was over 100 µM. The “Ratio CC50/EC50” value in [5] is given as over 100. In data set [6], this compound returned an EC50 of 0.47 µM.
The compound `CC1(C)CC(=O)c2c(nc3c(c(C#N)cn3Cc3ccccc3)c2-c2c(F)cccc2F)C1` showed an IC50 in [4] of 0.36 µM. This compound also returned a 50% effective concentration (EC50) in data set [6] of 0.46 µM.
As for `O=C1Nc2ccc(Cl)cc2[C@@](C#CC2CC2)(C(F)(F)F)O1` [EFAVIRENZ], the CC50 in data set [1], in data set [2] and in data set [3] was over 100 µM each time.
Compound `CC1(C)CC(=O)c2c(nc3c(c(C#N)cn3Cc3ccccc3)c2-c2ccc([N+](=O)[O-])cc2)C1` showed a 50% inhibitory concentration (IC50) in data set [4] of 1.4 µM.
Turning to `CCCCn1cc(C#N)c2c(-c3ccc(C(F)(F)F)cc3F)c3c(nc21)-c1ccccc1C3=O`, in [7], the Ratio IC50 turned out to be 49. Moreover, the half-maximal inhibitory concentration (IC50) is over 100 µM in data set [8], over 100 µM in [11], 28 µM in data set [12] and 0.58 µM in data set [4]. Moreover, the values for the CC50 in data set [1], in [2] and in [3] were 48 µM, 6.8 µM and over 100 µM, respectively. Moreover, the “Ratio CC50/EC50” value in data set [5] is reported as over 100. In addition, in data set [6], the 50% effective concentration (EC50) was 0.83 µM.
`CC1(C)CC(=O)c2c(nc3c(c(C#N)cn3Cc3ccccc3)c2-c2ccccc2)C1`: the results for the Ratio IC50 in data set [7], in data set [9] and in data set [10] were 28, 11 and 211, respectively. Besides, the IC50 in data set [8] was over 100 µM; in [13] it was 8.9 µM; in data set [11], 69 µM; in data set [12], 9.2 µM; in data set [14], 10 µM; in [15] it was 0.96 µM. Besides, the IC50 in data set [4] and in data set [16] was 0.73 µM in each case. Also, the CC50 in data set [1], in data set [2] and in data set [3] was over 100 µM in each case. Further, the “Ratio CC50/EC50” value in [5] is given as over 100. Also, the concentration for a half-maximal effect (EC50) in data set [6] came out at 0.35 µM.
Consider `CC(=O)c1cc2c(-c3ccc(N(C)C)cc3)c3c(nc2[nH]1)-c1ccccc1C3=O`, for which the results for the cytotoxic concentration (CC50) in [1], in data set [2] and in data set [3] were 24 µM, 11 µM and over 100 µM, respectively. Also, the IC50 in data set [4] amounted to 15 µM. In data set [5], the “Ratio CC50/EC50” value is reported as over 100. This compound also yielded a half-maximal effective concentration (EC50) in [6] of 0.93 µM.
For the compound `Cc1ccnc2c1NC(=O)c1cccnc1N2C1CC1` [NEVIRAPINE], the CC50 at 168 h in data set [17], in data set [18] and in data set [19] was over 100 µM each time. In addition, in data set [6], the midpoint of the response, the EC50, lay at 0.04 µM.

The term CC50 denotes the concentration at which the toxic effect on the cells reaches its halfway point. A word on the IC50: it is the concentration that inhibits the measured activity by half. A word on the EC50: it is the midpoint of the concentration-response curve.

For the origin of these results see ChEMBL document CHEMBL4425139, “Discovery, characterization, and lead optimization of 7-azaindole non-nucleoside HIV-1 reverse transcriptase inhibitors” (Bioorg Med Chem Lett, 2016).
